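These data come from cells grown in 96-well plates and exposed to compound for 48 hours at five concentrations. GI50 = concentration required for 50% inhibition of growth.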 Calls of active or inactive are those of the source. No stated cut-off is given here; in the data, active = GI50 up to about 1.1 µM and inactive = higher.
Legend:
Experiment in all cases: NCI anticancer screen, dose series, 48 h
786-0 = test system: 786-0
A549 = test system: A549
ACHN = test system: ACHN
CAKI-1 = test system: CAKI-1
CCRF-CEM = test system: CCRF-CEM
COLO 205 = test system: COLO 205
DLD-1 = test system: DLD-1
DMS-114 = test system: DMS-114
DMS-273 = test system: DMS-273
EKVX = test system: EKVX
HCC 2998 = test system: HCC 2998
HCT-116 = test system: HCT-116
HCT-15 = test system: HCT-15
HL-60 = test system: HL-60
HOP-62 = test system: HOP-62
HOP-92 = test system: HOP-92
IGROV-1 = test system: IGROV-1
K562 = test system: K562
KM-20L2 = test system: KM-20L2
KM12 = test system: KM12
LOX IMVI = test system: LOX IMVI
LXFL 529 = test system: LXFL 529
M14 = test system: M14
M19-MEL = test system: M19-MEL
MOLT-4 = test system: MOLT-4
Malme-3M = test system: Malme-3M
NCI-H23 = test system: NCI-H23
NCI-H460 = test system: NCI-H460
NCI-H522 = test system: NCI-H522
OVCAR-3 = test system: OVCAR-3
OVCAR-4 = test system: OVCAR-4
OVCAR-5 = test system: OVCAR-5
OVCAR-8 = test system: OVCAR-8
RPMI-8226 = test system: RPMI-8226
SF-268 = test system: SF-268
SF-539 = test system: SF-539
SK-MEL-28 = test system: SK-MEL-28
SK-MEL-2 = test system: SK-MEL-2
SK-MEL-5 = test system: SK-MEL-5
SK-OV-3 = test system: SK-OV-3
SN12C = test system: SN12C
SNB-19 = test system: SNB-19
SNB-75 = test system: SNB-75
SNB-78 = test system: SNB-78
SR = test system: SR
SW-620 = test system: SW-620
TK-10 = test system: TK-10
U-251 = test system: U-251
UACC-257 = test system: UACC-257
UACC-62 = test system: UACC-62
UO-31 = test system: UO-31
XF498 = test system: XF498
HT-29 = test system: HT-29
RXF 393 = test system: RXF 393
SF-295 = test system: SF-295
A498 = test system: A498
NCI-H226 = test system: NCI-H226

Cc1ccc(S(=O)(=O)c2c(N)c3nccn3c3nc4ccccc4nc23)cc1
GI50 (786-0): 49 µM (inactive) | GI50 (A549): > 100 µM (inactive) | GI50 (ACHN): 79.8 µM (inactive) | GI50 (CAKI-1): > 100 µM (inactive) | GI50 (CCRF-CEM): > 100 µM (inactive) | GI50 (COLO 205): > 100 µM (inactive) | GI50 (DLD-1): > 100 µM (inactive) | GI50 (DMS-114): > 100 µM (inactive) | GI50 (DMS-273): 81.1 µM (inactive) | GI50 (EKVX): > 100 µM (inactive) | GI50 (HCC 2998): > 100 µM (inactive) | GI50 (HCT-116): > 100 µM (inactive) | GI50 (HCT-15): > 100 µM | GI50 (HL-60): > 100 µM (inactive) | GI50 (HOP-62): 81.7 µM (inactive) | GI50 (HOP-92): > 100 µM (inactive) | GI50 (IGROV-1): 13.5 µM (inactive) | GI50 (K562): > 100 µM (inactive) | GI50 (KM-20L2): > 100 µM (inactive) | GI50 (KM12): > 100 µM (inactive) | GI50 (LOX IMVI): > 100 µM (inactive) | GI50 (LXFL 529): > 100 µM (inactive) | GI50 (M14): > 100 µM (inactive) | GI50 (M19-MEL): > 100 µM (inactive) | GI50 (MOLT-4): > 100 µM (inactive) | GI50 (Malme-3M): > 100 µM (inactive) | GI50 (NCI-H23): > 100 µM (inactive) | GI50 (NCI-H460): > 100 µM (inactive) | GI50 (NCI-H522): > 100 µM (inactive) | GI50 (OVCAR-3): > 100 µM (inactive) | GI50 (OVCAR-4): > 100 µM (inactive) | GI50 (OVCAR-5): > 100 µM (inactive) | GI50 (OVCAR-8): > 100 µM (inactive) | GI50 (RPMI-8226): > 100 µM (inactive) | GI50 (SF-268): > 100 µM (inactive) | GI50 (SF-539): > 100 µM (inactive) | GI50 (SK-MEL-28): > 100 µM (inactive) | GI50 (SK-MEL-2): > 100 µM (inactive) | GI50 (SK-MEL-5): > 100 µM (inactive) | GI50 (SK-OV-3): > 100 µM (inactive) | GI50 (SN12C): > 100 µM (inactive) | GI50 (SNB-19): > 100 µM (inactive) | GI50 (SNB-75): 7.85 µM (inactive) | GI50 (SNB-78): 53.5 µM (inactive) | GI50 (SR): > 100 µM (inactive) | GI50 (SW-620): > 100 µM (inactive) | GI50 (TK-10): 69.8 µM (inactive) | GI50 (U-251): > 100 µM (inactive) | GI50 (UACC-257): > 100 µM (inactive) | GI50 (UACC-62): 20.4 µM (inactive) | GI50 (UO-31): > 100 µM (inactive) | GI50 (XF498): 41.8 µM (inactive)

CC(=O)O/N=C/c1cc2c(cc1Br)OCO2
GI50 (786-0): > 349 µM (inactive) | GI50 (A549): > 349 µM (inactive) | GI50 (ACHN): > 349 µM (inactive) | GI50 (CAKI-1): > 349 µM (inactive) | GI50 (CCRF-CEM): > 349 µM (inactive) | GI50 (COLO 205): > 349 µM (inactive) | GI50 (DLD-1): > 349 µM (inactive) | GI50 (DMS-114): > 349 µM (inactive) | GI50 (DMS-273): > 349 µM (inactive) | GI50 (EKVX): > 349 µM (inactive) | GI50 (HCC 2998): > 349 µM (inactive) | GI50 (HCT-15): > 349 µM | GI50 (HL-60): > 349 µM (inactive) | GI50 (HOP-62): > 349 µM (inactive) | GI50 (HOP-92): > 349 µM (inactive) | GI50 (HT-29): > 349 µM (inactive) | GI50 (IGROV-1): > 349 µM (inactive) | GI50 (K562): > 349 µM (inactive) | GI50 (KM-20L2): > 349 µM (inactive) | GI50 (KM12): > 349 µM (inactive) | GI50 (LOX IMVI): > 349 µM (inactive) | GI50 (LXFL 529): > 349 µM (inactive) | GI50 (M19-MEL): > 349 µM (inactive) | GI50 (MOLT-4): > 349 µM (inactive) | GI50 (Malme-3M): > 349 µM (inactive) | GI50 (NCI-H23): > 349 µM (inactive) | GI50 (NCI-H460): > 349 µM (inactive) | GI50 (NCI-H522): 185 µM (inactive) | GI50 (OVCAR-3): 137 µM (inactive) | GI50 (OVCAR-5): > 349 µM (inactive) | GI50 (OVCAR-8): > 349 µM (inactive) | GI50 (RPMI-8226): > 349 µM (inactive) | GI50 (RXF 393): > 349 µM (inactive) | GI50 (SF-268): > 349 µM (inactive) | GI50 (SF-295): 291 µM (inactive) | GI50 (SK-MEL-28): > 349 µM (inactive) | GI50 (SK-MEL-2): > 349 µM (inactive) | GI50 (SK-MEL-5): > 349 µM (inactive) | GI50 (SK-OV-3): > 349 µM (inactive) | GI50 (SN12C): > 349 µM (inactive) | GI50 (SR): > 349 µM (inactive) | GI50 (SW-620): > 349 µM (inactive) | GI50 (TK-10): > 349 µM (inactive) | GI50 (U-251): > 34.9 µM (inactive) | GI50 (UACC-257): > 349 µM (inactive) | GI50 (UACC-62): > 349 µM (inactive) | GI50 (XF498): > 349 µM (inactive)

CCOC1=CP(=O)(OCC)CC(C)=C1Cl (stereo not drawn)
GI50 (786-0): > 100 µM (inactive) | GI50 (A498): > 100 µM (inactive) | GI50 (A549): > 100 µM (inactive) | GI50 (ACHN): > 100 µM (inactive) | GI50 (CAKI-1): > 100 µM (inactive) | GI50 (CCRF-CEM): > 100 µM (inactive) | GI50 (COLO 205): 7.21 µM (inactive) | GI50 (DLD-1): > 100 µM (inactive) | GI50 (DMS-114): > 100 µM (inactive) | GI50 (DMS-273): 15.7 µM (inactive) | GI50 (EKVX): > 100 µM (inactive) | GI50 (HCC 2998): > 100 µM (inactive) | GI50 (HCT-116): > 100 µM (inactive) | GI50 (HL-60): > 100 µM (inactive) | GI50 (HOP-62): > 100 µM (inactive) | GI50 (HOP-92): > 100 µM (inactive) | GI50 (HT-29): > 100 µM (inactive) | GI50 (IGROV-1): > 100 µM (inactive) | GI50 (K562): > 100 µM (inactive) | GI50 (KM-20L2): > 100 µM (inactive) | GI50 (KM12): > 100 µM (inactive) | GI50 (LOX IMVI): > 100 µM (inactive) | GI50 (LXFL 529): > 100 µM (inactive) | GI50 (M14): > 100 µM (inactive) | GI50 (M19-MEL): > 100 µM (inactive) | GI50 (MOLT-4): > 100 µM (inactive) | GI50 (Malme-3M): > 100 µM (inactive) | GI50 (NCI-H226): > 100 µM (inactive) | GI50 (NCI-H23): > 100 µM (inactive) | GI50 (NCI-H460): > 100 µM (inactive) | GI50 (NCI-H522): > 100 µM (inactive) | GI50 (OVCAR-3): > 100 µM (inactive) | GI50 (OVCAR-5): > 100 µM (inactive) | GI50 (OVCAR-8): > 100 µM (inactive) | GI50 (RPMI-8226): > 100 µM (inactive) | GI50 (RXF 393): > 10 µM (inactive) | GI50 (SF-268): > 100 µM (inactive) | GI50 (SF-295): > 100 µM (inactive) | GI50 (SF-539): > 100 µM (inactive) | GI50 (SK-MEL-28): > 100 µM (inactive) | GI50 (SK-MEL-2): > 100 µM (inactive) | GI50 (SK-MEL-5): > 100 µM (inactive) | GI50 (SK-OV-3): > 100 µM (inactive) | GI50 (SN12C): > 100 µM (inactive) | GI50 (SNB-19): > 100 µM (inactive) | GI50 (SNB-75): 30.4 µM (inactive) | GI50 (SNB-78): > 100 µM (inactive) | GI50 (SR): > 100 µM (inactive) | GI50 (SW-620): > 100 µM (inactive) | GI50 (TK-10): > 100 µM (inactive) | GI50 (U-251): > 100 µM (inactive) | GI50 (UACC-257): > 100 µM (inactive) | GI50 (UACC-62): > 100 µM (inactive) | GI50 (UO-31): > 100 µM (inactive)
